Data from patent US12588678B2, “Oxazoline compound, synthesis method therefor and application thereof” (NANKAI UNIVERSITY, priority 2019, dated 2026).

What was measured:
[1] = test system: Tetranychus cinnabarinus mite larvae; assay: Larvicidal activity test, dipping method on bean seedling leaves; type: in vivo; conditions: for mortality at 100 µg/mL / mortality at 200 µg/mL / mortality at 10 µg/mL / mortality at 1 µg/mL / mortality at 0.01 µg/mL / mortality at 0.05 µg/mL / mortality at 0.1 µg/mL: Tetranychus cinnabarinus, 96 h, checked after 4 days; for mortality at 100 µg/mL: read-out: mortality of mite larvae (%), 100 mg/L; for mortality at 200 µg/mL: read-out: mortality of mite larvae (%), 200 mg/L; for mortality at 10 µg/mL: read-out: mortality of mite larvae (%), 10 mg/L; for mortality at 1 µg/mL: read-out: mortality of mite larvae (%), 1 mg/L; for acaricidal activity compared with etoxazole: Tetranychus cinnabarinus eggs and larvae, etoxazole as reference; for mortality at 0.01 µg/mL: read-out: mortality of mite larvae (%), 0.01 mg/L; for mortality at 0.05 µg/mL: read-out: mortality of mite larvae (%), 0.05 mg/L; for mortality at 0.1 µg/mL: read-out: mortality of mite larvae (%), 0.1 mg/L
From the text: (§1) The assay examples are used to illustrate the acaricidal activity against Tetranychus cinnabarinus (mortality of mite larvae and mortality of mite eggs) of the compounds having the structure represented by formula (I), and the results are shown in tables 1 to 9, where mortality of mite larvae % =(number of dead mite larvae applied/total number of mite larvae applied)×100, and mortality of mite eggs %= (number of dead mite eggs applied/total number of mite eggs applied)×100.
Tetranychus cinnabarinus bred indoors on bean seedlings was used as a test subject by the dipping method. Move adult mites onto the newly grown complete bean seedling leaves with two leaves, cut off the bean seedlings, place the bean seedlings in a greenhouse with illumination at 25° C. for laying eggs for 24 hours, then remove adult mites and keep mite eggs. And continuously culture in the greenhouse for 5 days until mite eggs hatch into mite larvae (ensuring that the number of the mites on each tested leaf is not less than 60).
Completely immerse the bean seedling leaves containing the mite larvae into the sample solution to be detected with Tween at the prepared concentration for 5-6 seconds by using tweezers, slightly throw off residual liquid, put the bean seedling leaves back to the culture cup, continuously culture for 4 days and check the result. One of the plants was immersed in a solution containing no sample to be tested and the remaining additives were identical to the sample solution as a blank control. Each compound was replicated three times.

[2] = test system: Tetranychus cinnabarinus mite eggs; assay: Activity against mite eggs, dipping method on bean seedling leaves; type: in vivo; conditions: for mortality at 1 µg/mL / mortality at 10 µg/mL / mortality at 100 µg/mL / mortality at 200 µg/mL / mortality at 0.01 µg/mL / mortality at 0.05 µg/mL / mortality at 0.1 µg/mL: Tetranychus cinnabarinus, 96 h, checked after 4 days; for mortality at 1 µg/mL: read-out: mortality of mite eggs (%), 1 mg/L; for mortality at 10 µg/mL: read-out: mortality of mite eggs (%), 10 mg/L; for mortality at 100 µg/mL: read-out: mortality of mite eggs (%), 100 mg/L; for mortality at 200 µg/mL: read-out: mortality of mite eggs (%), 200 mg/L; for mortality at 0.01 µg/mL: read-out: mortality of mite eggs (%), 0.01 mg/L; for mortality at 0.05 µg/mL: read-out: mortality of mite eggs (%), 0.05 mg/L; for mortality at 0.1 µg/mL: read-out: mortality of mite eggs (%), 0.1 mg/L
From the text: as §1
Tetranychus cinnabarinus bred indoors on bean seedlings was used as a test subject by the dipping method. Move female adult mites onto the newly grown complete bean seedling leaves with two leaves, cut off the bean seedlings, place the bean seedlings in a greenhouse with illumination at 25° C. for laying eggs for 24 hours, then remove adult mites and keep mite eggs. After continuously culturing in the greenhouse for one day, completely soak the bean seedling leaves containing the acarid eggs into the prepared sample solution to be tested for 5-6 seconds by using tweezers, slightly throw off residual liquid, put the bean seedling leaves back to the culture cup, continuously culture for 4 days and then check the result. One of the plants was immersed in a solution containing no sample to be tested and the remaining additives were identical to the sample solution as a blank control. Each compound was replicated three times.

SMILES	mortality at 100 µg/mL [1]	mortality at 200 µg/mL [1]	mortality at 1 µg/mL [2]	mortality at 10 µg/mL [2]	mortality at 100 µg/mL [2]	mortality at 200 µg/mL [2]	mortality at 10 µg/mL [1]	mortality at 1 µg/mL [1]	acaricidal activity compared with etoxazole [1]	mortality at 0.01 µg/mL [1]	mortality at 0.05 µg/mL [1]	mortality at 0.1 µg/mL [1]	mortality at 0.01 µg/mL [2]	mortality at 0.05 µg/mL [2]	mortality at 0.1 µg/mL [2]	activity on mite eggs, times that of etoxazole ([2]; relative to etoxazole)	larvicidal activity, times that of etoxazole ([1]; relative to etoxazole)
Fc1cccc(F)c1C1=NC(c2ccc(CN3CCCC3)cc2)CO1 (stereo not shown) [Compound R1-1]	50%	70%	30%	60%	70%	95%	–	–	–	–	–	–	–	–	–	–	–
Fc1cccc(F)c1C1=NC(c2ccc(CN3CCCCCC3)cc2)CO1 (stereo not shown) [Compound R1-2]	75%	90%	–	55%	80%	95%	35%	–	–	–	–	–	–	–	–	–	–
Fc1cccc(F)c1C1=NC(c2ccc(CN3CCCCCCC3)cc2)CO1 (stereo not shown) [Compound R1-3]	95%	100%	55%	70%	90%	100%	70%	55%	–	–	–	–	–	–	–	–	–
Fc1cccc(F)c1C1=NC(c2ccc(CN3CCOCC3)cc2)CO1 (stereo not shown) [Compound R1-4]	70%	90%	–	50%	70%	90%	30%	–	–	–	–	–	–	–	–	–	–
Fc1cccc(F)c1C1=NC(c2ccc(Cn3cccc3)cc2)CO1 (stereo not shown) [Compound R1-5]	90%	100%	–	45%	100%	100%	40%	–	–	–	–	–	–	–	–	–	–
Fc1cccc(F)c1C1=NC(c2ccc(CN3CC=CC3)cc2)CO1 (stereo not shown) [Compound R1-6]	100%	100%	50%	70%	100%	100%	70%	50%	–	–	–	–	–	–	–	–	–
CC(=O)N1CCN(Cc2ccc(C3COC(c4c(F)cccc4F)=N3)cc2)C1=O (stereo not shown) [Compound R1-8]	95%	100%	–	40%	95%	100%	65%	35%	–	–	–	–	–	–	–	–	–
O=C1CCC(=O)N1Cc1ccc(C2COC(c3c(F)cccc3F)=N2)cc1 (stereo not shown) [Compound R1-9]	80%	85%	–	50%	70%	95%	35%	–	–	–	–	–	–	–	–	–	–
O=C1c2ccccc2C(=O)N1Cc1ccc(C2COC(c3c(F)cccc3F)=N2)cc1 (stereo not shown) [Compound R1-10]	100%	100%	85%	90%	100%	100%	95%	80%	higher acaricidal activity than etoxazole	40%	55%	70%	40%	65%	75%	10 times	–
Fc1cccc(F)c1C1=NC(c2ccc(Cn3cccn3)cc2)CO1 (stereo not shown) [Compound R1-12]	70%	100%	–	50%	80%	90%	40%	–	–	–	–	–	–	–	–	–	–
Fc1cccc(F)c1C1=NC(c2ccc(CN3CCc4ccccc4C3)cc2)CO1 (stereo not shown) [Compound R1-13]	88%	100%	60%	90%	100%	100%	70%	40%	–	–	–	–	–	–	–	–	–
Fc1cccc(F)c1C1=NC(c2ccc(CN3CCc4ccccc43)cc2)CO1 (stereo not shown) [Compound R1-14]	95%	100%	40%	70%	95%	100%	70%	30%	–	–	–	–	–	–	–	–	–
Fc1cccc(F)c1C1=NC(c2ccc(Cn3ccc4ccccc43)cc2)CO1 (stereo not shown) [Compound R1-15]	100%	100%	90%	100%	100%	100%	90%	80%	higher acaricidal activity than etoxazole	35%	50%	65%	35%	65%	80%	–	–
Cc1ccc2c(ccn2Cc2ccc(C3COC(c4c(F)cccc4F)=N3)cc2)c1 (stereo not shown) [Compound R1-16]	100%	100%	50%	70%	100%	100%	65%	50%	–	–	–	–	–	–	–	–	–
Cc1ccc2ccn(Cc3ccc(C4COC(c5c(F)cccc5F)=N4)cc3)c2c1 (stereo not shown) [Compound R1-17]	100%	100%	40%	65%	100%	100%	40%	20%	–	–	–	–	–	–	–	–	–
Cc1cccc2ccn(Cc3ccc(C4COC(c5c(F)cccc5F)=N4)cc3)c12 (stereo not shown) [Compound R1-18]	100%	100%	80%	100%	100%	100%	100%	85%	higher acaricidal activity than etoxazole	45%	55%	75%	30%	55%	75%	–	5 times
Cc1cn(Cc2ccc(C3COC(c4ccccc4F)=N3)cc2)c2ccccc12 (stereo not shown) [Compound R1-19]	–	–	–	–	–	–	–	–	higher acaricidal activity than etoxazole	–	–	–	–	–	–	–	–
Fc1cccc(F)c1C1=NC(c2ccc(Cn3ccc4c(F)cccc43)cc2)CO1 (stereo not shown) [Compound R1-20]	100%	100%	60%	80%	100%	100%	70%	45%	–	–	–	–	–	–	–	–	–
Fc1ccc2ccn(Cc3ccc(C4COC(c5c(F)cccc5F)=N4)cc3)c2c1 (stereo not shown) [Compound R1-21]	100%	100%	30%	70%	100%	100%	60%	–	–	–	–	–	–	–	–	–	–
Fc1ccc2c(ccn2Cc2ccc(C3COC(c4c(F)cccc4F)=N3)cc2)c1 (stereo not shown) [Compound R1-22]	100%	100%	85%	90%	98%	100%	85%	80%	higher acaricidal activity than etoxazole	–	45%	70%	–	45%	75%	–	–
Fc1cccc(F)c1C1=NC(c2ccc(Cn3ccc4cc(Cl)ccc43)cc2)CO1 (stereo not shown) [Compound R1-23]	100%	100%	60%	75%	100%	100%	80%	50%	–	–	–	–	–	–	–	–	–
